Patent publication US20080070855A1, “Treatment with anti-VEGF agents to prevent postoperative inflammation and angiogenesis in normal and diseased eyes” (priority 2006, published 2008)

Tested on: patients with diabetic retinopathy undergoing cataract surgery
Test: Intravitreal injection of anti-VEGF compound before cataract surgery in patients with diabetic retinopathy (case reports)
Type: in vivo, human
Conditions: Example 2: diabetic retinopathy; 0.15 cc (3.75 mg) intravitreal, same day prior to cataract surgery
Method: The following is an example of a method performed for the intravitreal injection of pharmaceutical compositions containing at least one anti-VEGF compound. Prior to injecting a needle through the sclera, the eyes were massaged to soften the ophthalmic tissue. The next step is to create a bleb in the conjunctiva and move the conjunctiva up from prefere so it covered an area about 3.5 mm from the limbus. Once the conjunctiva is prepared, the needle is inserted through the sclera into the vitreous. A 30 or 31 gauge needle is used. […]
A person underwent cataract surgery in the right eye. […] Refraction of the right eye was measured as −0.25−0.75×170 20/200. […] Refraction of the right eye after one week was measured at −0.25 sph 20/25.
A person with proliferative diabetic retinopathy with a history of pan-photocoagulation underwent cataract surgery of both eyes, however on different dates. Preoperative right eye refraction was measured as pl −0.50×174 20/100. Preoperative left eye refraction was measured as −0.75 sph 20/150. […]
A person with proliferative diabetic retinopathy with a history of pan-photocoagulation underwent cataract surgery of the left eye. Preoperative left eye refraction was measured as plano sph 20/80. […] Six days following cataract surgery refraction of the left eye was measured as plano sph 20/25.

## Bevacizumab: anti-VEGF humanized monoclonal IgG1 antibody that binds and inhibits VEGF (trade name AVASTIN, Genentech)
  Patient condition after one week: doing well
